{"source": "patent US20200360305A1", "about": "(INSERM (Institut National de la Ssnté et de la Researche …, priority 2017, published 2020)", "key": {"[1]": {"test_system": "autophagy (LC3-I to LC3-II conversion, p62/SQSTM1 degradation)", "conditions": "oral administration (not shown)", "protocol": "Tissue processing for Immunoblotting. […] Tissue extracts were then centrifuged at 12,000 g at 4° C. and supernatants were collected. Protein concentration in the supernatants was evaluated by the bicinchoninic acid technique (#23225, BCA protein assay kit). Protein extracts were run on 4-12% Bis-Tris acrylamide gels (# NP0322, Thermo Fisher Scientific) and electrotransferred to […] polyvinylidene fluoride (PVDF) membranes (#1620177,Bio-Rad). […] Equal protein loading was monitored by probing membranes with a glyceraldeyde-3-phosphate dehydrogenase (GAPDH)-specific antibody (#2118, Cell Signaling Technology). Membranes were developed with suitable horseradish peroxidase conjugates followed by chemiluminescence-based detection with the Amersham ECL Prime (# RPN2232, GE Healthcare and the ImageQuant LAS 4000 software-assisted imager (GE Healthcare, Piscataway, N.J., USA). Quantification was performed by densitometry by means of Image J software. Autophagy was quantified through evaluation of LC3-II/GAPDH ratio and SQSTM1/GAPDH ratio in accordance to guidelines."}, "[2]": {"from_the_text": "Mouse experiments Six-to 7-week-old male WT C57Bl/6 were obtained from Envigo, France. Mice were maintained in specific pathogen-free conditions in a temperature-controlled environment with 12-hr light/12-hr dark cycles and received food and water ad libitum. Animal experiments were in compliance with the EU Directive 63/2010 and protocols 2012_069 and APAFIS #5272-2016042112271931v2 were approved by Ethical Committee of the Gustave Roussy Campus and Cordeliers Research Centre respectively. For weight gain experiments, mice were fed high fat diet (#260HF, Safe, France) or were given 30% sucrose solution in tap water."}, "[3]": {"conditions": "chronic TETA", "protocol": "Glucose and Insulin Tolerance Test. For glucose tolerance test (GTT) mice were fasted O/N for 16 hours. 2.5 g/kg/BW glucose solution in PBS was injected intraperitoneally and blood glucose levels was measured by means of glucometer in tail vein blood. Tail snipping was used to obtain blood. Before snips, the tail end was dipped into Bupivicaine (0.25%) for local anesthesia. For the insulin tolerance test (ITT), mice were starved for 4 hours and a solution of 0.75 U/kg/BW insulin was injected intraperitoneally. Blood glucose is measured at 30, 60, and 120 minutes after glucose or insulin injection."}, "[4]": {"conditions": "HFD mice, TETA 8 weeks", "protocol": "Plasma cytokine measurements. Plasma was harvested from blood collection tubes by centrifugation at 15,000 rpm for 30 min, and stored at −80° C. Cytokines and levels were measured using a mouse serum adipokine immunoassay kit according to the protocol provided by the manufacturer (Cat. # MMHMAG-44K, EMD Millipore, Temecula, Calif., USA)."}, "[5]": {"conditions": "patients, long-term (decades) administration; cited from earlier work"}, "[6]": {"test_system": "N-e-acetylated Lysine residues of proteins", "experiment": "Quantitative analysis of protein acetylation in tissues (immunofluorescence)", "conditions": "mice"}, "[7]": {"test_system": "polyamine and acetyl coenzyme A metabolism", "experiment": "Metabolomics analysis of tissues (polyamines, acetyl CoA, TETA metabolites)", "assay_type": "in vivo, mouse", "conditions": "for Acetyl coenzyme A (CoA) levels: liver (FIG. 7C); for Acetyl coenzyme A (CoA) levels / Ratio of N1-acetylspermidine over spermidine (polyamine catabolism): mice upon HFD regimen; for Ratio of N1-acetylspermidine over spermidine (polyamine catabolism): liver, heart or muscle (FIG. 7B)", "description": "Metabolomics analysis. All standard and reagents used were from Sigma Aldrich except Ammonium carbonate (VWR). For sample preparation, about 30 mg of tissues for each condition were first weighted and solubilized into 1.5 mL polypropylene microcentrifuge tubes with ceramic beads with 1 mL of cold lysate buffer (MeOH/Water/Chloroform, 9/1/1, −20° C.). They were then homogenized three times for 20 s at 5500 rpm using a Precellys 24 tissue homogenator (Bertin Technologies, Montigny-le-Bretonneux, France), followed by a centrifugation (10 min at 15000 g, 4° C.). […] The LC-MS dried extracts were solubilized with 450 μL of MilliQ water and aliquoted in 3 microcentrifuge tubes (100 μL) for each LC method and one microcentrifuge tube for safety. Aliquots for analysis were transferred in LC vials and injected into LC/MS or kept at −80° C. until injection. For sample preparation of polyamines, about 30 mg of tissues for each condition were first weighted and solubilized into 1.5 mL polypropylene microcentrifuge tubes, with 1 mL of cold lysate buffer with 1% sulfosalicylic acid (MeOH /water 1% SSA, 9/1, −20° C.). They were then homogenized three times for 20 s at 5500 rpm using Precellys 24 tissue homogenator (Bertin Technologies, Montigny-le-Bretonneux, France), followed by a centrifugation (10 min at 15000 g, 4° C.). 600 μL of the upper phase of the supernatant was collected and evaporated in microcentrifuge tubes at 40° C. in a pneumatically assisted concentrator (Techne DB3, Staffordshire, UK). The LC-MS dried extracts were solubilized with 300 μL of MilliQ water, centrifugated (10 min at 15000 g, 4° C.), and 50 μL were transferred in polypropylene vial injection for LC method and the rest was transferred in microcentrifuge tube for safety. Aliquots transferred in polypropylene vials were injected into LC/MS or kept at −80° C. until injection. Targeted analysis of CoAs and nucleoside phosphates by ion pairing ultrahigh performance liquid chromatography (UHPLC) coupled to a Triple Quadrupole (QQQ) mass spectrometer was performed on a RRLC 1260 system (Agilent Technologies, Waldbronn, Germany) coupled to a Triple Quadrupole 6410 (Agilent Technologies) equipped with an electrospray source operating in positive mode. The gas temperature was set to 350° C. with a gas flow of 12 L/min. The capillary voltage was set to 3.5 kV.\n10 μL of sample were injected on a Column XDB-C18 (100 mm×2.1 mm particle size 1.8 μm) from Agilent technologies, protected by a guard column XDB-C18 (5 mm×2.1 mm particle size 1.8 μm) and heated at 40° C. by a pelletier oven.\nThe gradient mobile phase consisted of water with 2 mM of DBAA (A) and acetonitrile (B). The flow rate was set to 0.2 mL/min, and gradient as follow: initial condition was 90% phase A and 10% phase B, maintained during 4 min. Molecules were then eluted using a gradient from 10% to 95% phase B over 3 min."}, "[8]": {"test_system": "invertebrate model organisms", "conditions": "spermidine supplementation; cited from earlier work"}, "[9]": {"conditions": "mice, spermidine supplementation; cited from earlier work"}, "[10]": {"conditions": "mice on a high fat diet; cited from earlier work"}, "[11]": {"conditions": "cited from earlier work"}, "[12]": {"conditions": "old mice; cited from earlier work"}, "[13]": {"conditions": "ApoE-/- mice fed a high-fat diet for 20 weeks; cited from earlier work"}, "[14]": {"conditions": "Dahl salt-sensitive rats, high-salt diet, oral supplementation; cited from earlier work"}, "[15]": {"conditions": "in vivo; cited from earlier work"}, "Drosophila": {"test_system": "Drosophila", "conditions": "cited from earlier work"}, "[16]": {"conditions": "mice; cited from earlier work"}, "[17]": {"conditions": "mice, model of normal tension glaucoma; cited from earlier work"}, "[18]": {"conditions": "old mice; cited from earlier work", "remark": "listed apart in the source"}, "[19]": {"conditions": "mice with excessive weight gain, chronic TETA (not shown)"}, "[20]": {"conditions": "mice with excessive weight gain (HFD, sucrose, ob/ob)"}}, "note": "“Also recorded” adds a separate entry of the source. Like-named read-outs stand apart in the source and are kept apart here."}
{"compound": "NCCNCCNCCN", "note": "[TETA, N,N′-Bis(2-aminoethyl)ethane-1,2-diamine]", "values": [{"measurement": "Signs of autophagy in several mouse organs", "setting": "[1]", "value": "induced signs of autophagy"}, {"measurement": "Accumulation of intestinal and perigonadal adipose tissue", "setting": "[2]; [19]", "value": "reduced accumulation of intestinal and perigonadal adipose tissue"}, {"measurement": "Fat accumulation in the liver", "setting": "[2]; [19]", "value": "reduced fat accumulation in the liver"}, {"measurement": "Weight gain", "setting": "[2]; normal mice on a high-fat diet, TETA in drinking water", "value": "reduced the accelerated weight gain"}, {"measurement": "Weight gain", "setting": "[2]; normal mice on a high-sucrose diet (30% sucrose in drinking water), TETA per os 100 mg/kg", "value": "reduced the accelerated weight gain"}, {"measurement": "Weight gain", "setting": "[2]; ob/ob mice", "value": "reduced the accelerated weight gain"}, {"measurement": "Weight gain", "setting": "[2]; wild type mice on standard chow, TETA in drinking water or by gavage", "value": "failed to affect the physiological weight gain"}, {"measurement": "Glucose tolerance test", "setting": "[3]; WT mice fed a normal diet", "value": "had no effect"}, {"measurement": "Insulin tolerance test", "setting": "[3]; WT mice fed a normal diet", "value": "had no effect"}, {"measurement": "Plasma glucose concentration after intraperitoneal glucose (GTT)", "setting": "[3]; [20]", "value": "reduced the plasma glucose concentration"}, {"measurement": "Transient decrease in glycemia after injection of insulin (ITT)", "setting": "[3]; [20]", "value": "enhanced the transient decrease in glycemia"}, {"measurement": "Plasma C-peptide", "setting": "[4]", "value": "prevented the HFD-induced elevation"}, {"measurement": "Plasma IGFBP1", "setting": "[4]", "value": "prevented the HFD-induced elevation"}, {"measurement": "Plasma adiponectin levels", "setting": "[4]", "value": "increased the adiponectin levels"}, {"measurement": "Plasma gastric inhibitory peptide (GIP)", "setting": "[4]", "value": "prevented the HFD-induced elevation"}, {"measurement": "Plasma insulin", "setting": "[4]", "value": "prevented the HFD-induced elevation"}, {"measurement": "Plasma leptin", "setting": "[4]", "value": "prevented the HFD-induced elevation"}, {"measurement": "Plasma plasminogen activator inhibitor-1 (PAI-1)", "setting": "[4]", "value": "prevented the HFD-induced elevation"}, {"measurement": "Plasma resistin", "setting": "[4]", "value": "prevented the HFD-induced elevation"}, {"measurement": "Side effects", "setting": "[5]", "value": "side effects are mild"}, {"measurement": "Protein acetylation in heart (cardiomyocytes)", "setting": "[6]", "value": "reduces protein acetylation; also recorded: reduction in protein acetylation"}, {"measurement": "Protein acetylation in liver (hepatocytes)", "setting": "[6]", "value": "reduces protein acetylation; also recorded: reduction in protein acetylation"}]}
{"compound": "NCCCCNCCCN", "note": "[Spermidine, spermidine]", "values": [{"measurement": "N1-acetylspermidine levels", "setting": "[7]; liver (FIG. 7A) and all mouse organs (data not shown)", "value": "increase in N1-acetylspermidine levels"}, {"measurement": "Acetyl coenzyme A (CoA) levels", "setting": "[7]", "value": "acetyl coenzyme A (AcCoA) depletion"}, {"measurement": "Acetyl coenzyme A (CoA) levels", "setting": "[7]; listed as spermidine", "value": "reduced acetyl coenzyme A (CoA) levels"}, {"measurement": "Ratio of N1-acetylspermidine over spermidine (polyamine catabolism)", "setting": "[7]", "value": "promote polyamine catabolism"}, {"measurement": "Ratio of N1-acetylspermidine over spermidine (polyamine catabolism)", "setting": "[7]; listed as spermidine", "value": "increased the ratio"}, {"measurement": "Spermidine level in organs", "setting": "[7]; mice, after spermidine administration", "value": "increase of this polyamine in most organs except plasma"}, {"measurement": "Longevity", "setting": "[8]", "value": "extends the longevity"}, {"measurement": "Longevity", "setting": "[9]", "value": "extends the longevity"}, {"measurement": "Glucose tolerance", "setting": "[10]", "value": "improved"}, {"measurement": "Insulin sensitivity", "setting": "[10]", "value": "improved"}, {"measurement": "Weight gain", "setting": "[10]", "value": "reduced weigh gain"}, {"measurement": "Cardiac aging", "setting": "[11]; aging mice, chronic administration", "value": "protects from cardiac aging"}, {"measurement": "Diastolic function, left ventricular elasticity, and mitochondrial function", "setting": "[11]; old mice", "value": "improves"}, {"measurement": "Age-induced arterial stiffness", "setting": "[12]", "value": "reversed age-induced arterial stiffness"}, {"measurement": "Formation of atherosclerotic plaques", "setting": "[13]", "value": "alleviated the formation of atherosclerotic plaques"}, {"measurement": "Blood pressure", "setting": "[14]", "value": "reduced high blood pressure"}, {"measurement": "Transition to heart failure", "setting": "[14]", "value": "delayed the transition to heart failure"}, {"measurement": "Anticancer immune response", "setting": "[15]", "value": "enhance the anticancer immune response"}, {"measurement": "Age-induced memory impairment", "setting": "Drosophila", "value": "protects from age-induced memory impairment"}, {"measurement": "Loss of locomotor activity", "setting": "Drosophila", "value": "protects from"}, {"measurement": "Signs of pathology in experimental autoimmune encephalomyelitis", "setting": "[16]", "value": "attenuates signs of pathology"}, {"measurement": "Retinal degeneration", "setting": "[17]", "value": "blunts retinal degeneration"}, {"measurement": "Spatial learning and memory capabilities", "setting": "[18]", "value": "improves spatial learning and memory capabilities"}]}
